PubChem BioAssay AID2691 (Broad Institute, 2010)
Converted amounts (≈) assume the structure as drawn. Results filed as inconclusive are left out. The source made the active and inactive calls.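 How the source made its calls: active means dose-dependent viability drop with mean lowest dose clearly under solvent controls below the top tested dose; inconclusive means self-fluorescent without titration, or replicates split around top dose; inactive means no such drop up to the top dose.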

The compounds below were run on NIH 3T3 viability, Alamar Blue fluorescence, 3 days (assay: mammalian fibroblast cytotoxicity – cell-based, Alamar Blue fluorescence, MIC, cytotoxicity control for polyadenylation inhibitor project, dose response (AID 2691)).
With `COc1cc(/C=C2\SC(=S)N(NC(=O)c3ccncc3)C2=O)ccc1O` the MIC was > 25 µM (inactive). For `CCOc1cc(/C=C2\N=C(SC(C)C(N)=O)N(c3ccc(OC(F)F)cc3)C2=O)ccc1O` (stereo not given), the MIC was > 25 µM (inactive). In the case of `O=C(Oc1c(-c2ccccc2)c(=O)n2c3c(cccc13)CC2)c1cccc([N+](=O)[O-])c1`, the MIC is reported as > 25 µM (inactive). Compound `Cc1ccc(C(=O)c2no[n+]([O-])c2C(=O)c2ccc(C)cc2)cc1` has an MIC of 1.6 µM (≈ 0.516 µg/mL). `Cc1ccc(-c2nn3c(C)nnc3s2)cc1NC(=O)CSc1ccc(Cl)cc1` was tested, and the MIC was > 25 µM (inactive). For `COc1cc(/C=C2\SC(=S)N(NC(=O)c3cccnc3)C2=O)ccc1O`, the MIC was > 25 µM (inactive). `CCN1/C(=C\C=C\c2sc3ccccc3[n+]2CC)Sc2ccccc21` was tested, and the MIC was > 25 µM (inactive). With `O=C(COC(=O)Cc1ccc(S(=O)(=O)N2CCOCC2)s1)NCc1ccc(Cl)cc1` the MIC was > 25 µM (inactive). With `Nc1ncnc2c1ncn2C1OC(CO)CC1O` (stereo not given) the MIC was > 25 µM (inactive). In the case of `N#CC1(C#N)C2=C(CCCC2)NC(c2ccccc2)C1(C#N)C#N` (stereo not given), the MIC is reported as > 25 µM (inactive). Work on `N#C/C(=C/c1ccc([N+](=O)[O-])o1)c1nc2ccccc2[nH]1` yielded an MIC of 1.6 µM (≈ 0.448 µg/mL). For `COc1cc(/C=C2/CC/C(=C/c3ccc(O)c(OC)c3)C2=O)ccc1O`, the MIC was > 25 µM (inactive). For `Cc1ccc(Nc2c(-c3ccc(C)o3)nc3ncccn23)cc1`, the MIC was > 25 µM (inactive). `Cc1ccc2nc(/C(C#N)=C/c3ccc([N+](=O)[O-])o3)[nH]c2c1` gave an MIC of 0.8 µM (≈ 0.235 µg/mL). In the case of `CC(=O)c1ccc(Sc2ccccc2)c([N+](=O)[O-])c1`, the MIC is reported as > 25 µM (inactive).
